Key:
[1] = biological target: T1, dopamine D2 receptor (Rattus norvegicus, UniProt P61169); test: [3H]-spiperidone binding, limbic brain homogenate (D2 Spiper); settings: homogenized limbic brain tissue
T1 construct: from tissue; host or cells: limbic brain tissue, homogenate
Procedure: High affinity for the dopamine D2 receptor was established by the standard experimental test procedure of Fields, et al., Brain Res., 136, […] (1977) and Yamamura et al., ed., Neurotransmitter Receptor Binding, Raven Press, N.Y. (1978) wherein homogenized limbic brain tissue is incubated with [^3 H]-spiperidone at various concentrations of test compound, filtered washed, and shaken with Hydrofluor scintillation cocktail (National Diagnostics) and counted in a Packard 460 CD scintillation counter.

[2] = biological target: T2, dopamine autoreceptor (D2 Quin.) (Rattus norvegicus, UniProt P61169); test: [3H]-quinpirole binding, rat striatal homogenate (D2 Quin., dopamine autoreceptor affinity); settings: homogenized rat striatal brain tissue, read-out: IC50 (nM) D2 Qmin.
T2 construct: homogenized rat striatal brain tissue is incubated; from tissue; host or cells: rat striatum, homogenate
T2 sequence (P61169 whole entry): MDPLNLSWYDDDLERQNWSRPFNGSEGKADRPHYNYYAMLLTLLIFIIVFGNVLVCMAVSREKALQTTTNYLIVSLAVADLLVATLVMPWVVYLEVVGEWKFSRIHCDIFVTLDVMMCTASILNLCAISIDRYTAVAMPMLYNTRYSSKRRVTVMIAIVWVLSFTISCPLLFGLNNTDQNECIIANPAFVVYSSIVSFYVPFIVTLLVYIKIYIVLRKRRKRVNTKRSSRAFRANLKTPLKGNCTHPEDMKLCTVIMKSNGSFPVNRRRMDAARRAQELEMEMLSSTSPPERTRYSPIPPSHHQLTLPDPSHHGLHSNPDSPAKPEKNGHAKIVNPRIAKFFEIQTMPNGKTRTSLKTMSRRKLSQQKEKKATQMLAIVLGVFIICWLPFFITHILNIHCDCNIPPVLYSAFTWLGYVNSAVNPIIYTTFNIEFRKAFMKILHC

T1 sequence (P61169 whole entry): as above

COc1ccc(CNCC2CCc3ccc4c(c3O2)CC(=O)N4)cc1 (stereo not drawn) [Example 1c, 2-(4-Methoxy-benzylamino-methyl)-3,4,7,9-tetrahydro-2H-pyrano[2,3e]indol-8-one]
IC50 [1]: 295 nM

O=C1Cc2c(ccc3c2OC(CNCc2ccc(Cl)cc2)CC3)N1 (stereo not drawn) [Example 1e, 2-(4-Chloro-benzylamino-methyl)-3,4,7,9-tetrahydro-2H-pyrano[2,3-e]indol-8-one]
IC50 [1]: 148 nM
IC50 [2]: 0.65 nM

O=C1Cc2c(ccc3c2OC(CNCc2ccccc2)CC3)N1 (single isomer, unassigned; (-)) [Example 2b, (-)-2-(benzylamino-methyl)-3,4,7,9-tetrhydro-2H-pyrano[2,3-e]indol-8-one]
IC50 [1]: 71.5 nM

O=C1Cc2c(ccc3c2OC(CNCc2ccc(F)cc2)CC3)N1 (stereo not drawn) [Example 1b, 2-(4-Fluoro-benzylamino-methyl)-3,4,7,9-tetrahydro-2H-pyrano[2,3-e]indol-8-one]
IC50 [1]: 310 nM

O=C1Cc2c(ccc3c2OC(CNCc2ccccc2)CC3)N1 (single isomer, unassigned; (+)) [Example 2a, (+)-2-(benzylamino-methyl)-3,4,9-tetrhydro-2H-pyrano[2,3-e]indol-8-one]
IC50 [1]: 734 nM

O=C1Cc2c(ccc3c2OC(CNCc2ccccc2)CC3)N1 (stereo not drawn) [Example 1a, 2-(Benzylamino-methyl)-3,4,7,9-tetrahydro-2H-pyrano-[2,3-e]indol-8-one]
IC50 [1]: 142 nM

Cc1ccc(CNCC2CCc3ccc4c(c3O2)CC(=O)N4)cc1 (stereo not drawn) [Example 1d, 2-(4-Methyl-benzylamino-methyl)-3,4,7,9-tetrahydro-2H-pyrano[2,3-e]indol8-one]
IC50 [1]: 103 nM

Cc1ccc(CNCC2CCc3ccc4c(c3O2)CC(=O)N4)c(C)c1 (stereo not drawn) [Example 1f, 2-(2,4-Dimethyl-benzylamino-methyl)-3,4,7,9-tetrahydo-2H-pyrano[2,3-e]indol-8-one]
IC50 [1]: 392 nM
